{"source": "patent US20060110385A1", "about": "“Means and methods for diagnosing and treating affective disorders” (Affectis Pharmaceuticals AG, priority 2003, published 2006)", "key": {"P2X7R [1]": {"target": "T1, P2X7R (Mus musculus, UniProt Q9Z1M0)", "T1 construct": "endogenous in cells; host or cells: HT-22 (immortalised mouse hippocampal cell line)", "T1 sequence (Q9Z1M0 1-595)": "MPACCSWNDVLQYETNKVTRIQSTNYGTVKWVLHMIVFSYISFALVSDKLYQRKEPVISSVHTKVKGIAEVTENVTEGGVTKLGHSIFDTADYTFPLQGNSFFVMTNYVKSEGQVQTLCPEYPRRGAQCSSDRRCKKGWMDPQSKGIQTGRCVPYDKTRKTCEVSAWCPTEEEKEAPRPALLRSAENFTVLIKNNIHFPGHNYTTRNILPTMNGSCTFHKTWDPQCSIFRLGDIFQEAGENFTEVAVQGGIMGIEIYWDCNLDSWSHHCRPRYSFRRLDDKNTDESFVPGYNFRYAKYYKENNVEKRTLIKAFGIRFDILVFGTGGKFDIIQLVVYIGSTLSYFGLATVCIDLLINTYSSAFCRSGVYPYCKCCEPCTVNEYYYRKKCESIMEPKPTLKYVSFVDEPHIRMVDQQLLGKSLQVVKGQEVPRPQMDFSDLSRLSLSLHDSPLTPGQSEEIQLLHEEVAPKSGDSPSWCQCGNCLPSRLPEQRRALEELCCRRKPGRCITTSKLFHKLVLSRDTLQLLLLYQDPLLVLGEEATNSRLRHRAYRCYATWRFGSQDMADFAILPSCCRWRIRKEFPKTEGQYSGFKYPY", "experiment": "Calcium influx into HT-22 cells (Oregon green AM ester)", "format": "cell-based", "conditions": "100 μM BzATP, 15 minutes", "excerpt": "Since P2X7R is an ATP-gated ion channel which allows the entry of calcium and sodium ions into cells, a method for identifying P2X7R agonist was established by monitoring calcium influx into HT-22 cells. […] Calcium movement into the cells was visualised under a fluorescent microscope with a fluorescein filter (wavelength 492/517 nm). Oregon green AM ester is a fluorescent dye that binds to intracellular calcium.\nActivation of P2X7R by the agonist was inhibited by oATP (FIG. 18) as illustrated by the absence of green fluorescence in the cells."}, "mice": {"tested_on": "mice", "experiment": "Open field test (locomotor activity) after BzATP", "format": "in vivo, mouse", "conditions": "50 μM BzATP, 24 hours after injection, 30 minutes", "method": "Locomotor activity was monitored for a period of 30 minutes using a video camera. Overall distance travelled by the animals during the testing period was then analysed by means of VideoMot2 computer software (TSE GmbH, Bad Homburg)."}, "P2X7R [2]": {"target": "T2, P2X7R (Homo sapiens, UniProt Q99572)", "T2 sequence (Q99572 1-595)": "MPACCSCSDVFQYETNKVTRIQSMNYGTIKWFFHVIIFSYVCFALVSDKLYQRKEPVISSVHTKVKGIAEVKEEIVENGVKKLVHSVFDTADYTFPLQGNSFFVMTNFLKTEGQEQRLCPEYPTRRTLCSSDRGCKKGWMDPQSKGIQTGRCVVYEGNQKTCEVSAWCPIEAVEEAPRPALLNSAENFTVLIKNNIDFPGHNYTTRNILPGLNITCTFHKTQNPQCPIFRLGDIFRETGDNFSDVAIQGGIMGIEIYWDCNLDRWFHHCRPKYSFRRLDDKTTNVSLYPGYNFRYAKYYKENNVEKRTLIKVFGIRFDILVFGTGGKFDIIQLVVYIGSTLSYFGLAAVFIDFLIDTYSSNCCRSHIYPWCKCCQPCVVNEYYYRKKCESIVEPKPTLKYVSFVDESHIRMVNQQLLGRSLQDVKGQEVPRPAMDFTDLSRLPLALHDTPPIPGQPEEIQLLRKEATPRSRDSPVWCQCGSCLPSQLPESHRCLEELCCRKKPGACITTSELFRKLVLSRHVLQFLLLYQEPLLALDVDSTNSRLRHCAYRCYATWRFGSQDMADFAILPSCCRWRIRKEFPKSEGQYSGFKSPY", "experiment": "Calcium entry (Fluo-4 AM) in HT-22 cells overexpressing human P2X7R", "format": "cell-based", "design": "expressed in transfected cells", "conditions": "20 μM BzATP or 50 μM tenidap", "excerpt": "Yet another method for identifying P2X7R agonists was devised by generating a immortalised mouse cell line that overexpresses the human P2X7R gene under the control of the human cytomegalovirus (CMV) early promoter/enhancer region. The human P2X7R cDNA was inserted into the pcDNA3.1 vector (Invitrogen) and transfected into the mouse hippocampal cell line HT-22 using Lipofectamine (Invitrogen) according to the manufacturer's specifications. One day after transfection, culture medium containing 500 μg/ml G418 was added to the cells. Resistant clones were separately isolated and cultured 14 days after applying the selection medium.\nThe agonistic activity of a compound was evaluated by measuring calcium entry in the cells that overexpress the human P2X7R. Cells were cultured in 96 well plates and incubated at 37° C. with 5% CO2 DMEM with 10% foetal calf serum (Gibco) until they reached confluence. Cells were then loaded for one hour with 10 μM of Fluo-4 AM (Molecular Probes). Fluo-4 AM is a fluorescent dye that binds to intracellular calcium. […] Agonist activity was detected by measuring an increase in calcium influx which results in increased binding to Fluo-4 AM and increased fluorescence. Changes in fluorescence signal are measured using a Fluostar Optima plate reader (BMG biotech). […] Thus, both compound stimulated the activity of P2X7R which results in an influx of ions into the cells."}}, "note": "Entries after “also recorded” stand apart in the source; their conditions may differ."}
{"substance": "2′-3′-O-(4-Benzoylbenzoyl)adenosine 5′-triphosphate [BzATP]", "values": [{"measurement": "calcium influx (green fluorescence)", "setting": "P2X7R [1]", "result": "Increase calcium influx; also recorded: increase in green fluorescence"}, {"measurement": "locomotor activity (overall distance travelled)", "setting": "mice", "result": "No difference in locomotor activity"}, {"measurement": "fluorescence intensity (calcium influx, Fluo-4 AM)", "setting": "P2X7R [2]", "result": "rapid increase in fluorescence intensity"}]}
